Patent publication US20090291939A1, “Treating Alcohol And Or Substance Abuse By Antagonizing Alpha 2 Adrenergic Receptors With Weak Dopamine Blocking” (priority 2002, published 2009)
Entries after “also recorded” stand apart in the source; their conditions may differ.

What was measured:
animals = conditions: cited from earlier work
Syrian golden hamsters = test: Free choice alcohol drinking in Syrian golden hamsters with daily s.c. drug treatment; conditions: for body weight, change from baseline: 9-day treatment period; for alcohol consumption during post-hoc period: post-hoc: CLOZ animals 2 days lower dose then 22 days vehicle, HAL animals 0.6, 0.8, then 1 mg/kg over 15 days
golden hamster = conditions: cited from earlier work

For `CN[C@H]1CC[C@@H](c2ccc(Cl)c(Cl)c2)c2ccccc21` [sertraline], the alcohol consumption (animals) is given as “inhibit alcohol consumption”.

With `O=C(CCCN1CCC(O)(c2ccc(Cl)cc2)CC1)c1ccc(F)cc1` [HAL, haloperidol] the “body weight, change from baseline” value (Syrian golden hamsters) was “stayed the same”, the “alcohol drinking, change during treatment period” value (Syrian golden hamsters; 9-day treatment: CLOZ 2 then 4 mg/kg, HAL 0.2 then 0.4 mg/kg, s.c. daily) was “unchanged” and the “alcohol use over full 24 days of treatment” value (Syrian golden hamsters; HAL dose ranging from 0.2 mg/kg to 1 mg/kg, including 11 days at highest dose) was “no evidence of a decrease in alcohol use”. For the same compound, the “alcohol consumption during post-hoc period” value (Syrian golden hamsters) was “did not change; also recorded: no change in alcohol drinking” and the “alcohol consumption during post-hoc period” value (Syrian golden hamsters; listed as haloperidol) was “no decrease in drinking”.

In the case of `C=CCN1CC[C@]23c4c5ccc(O)c4O[C@H]2C(=O)CC[C@@]3(O)[C@H]1C5` [naloxone], the alcohol consumption (animals) is given as “inhibit alcohol consumption”.

In the case of `O=c1c(-c2ccc(O)cc2)coc2cc(O[C@@H]3O[C@H](CO)[C@@H](O)[C@H](O)[C@H]3O)ccc12` [Daidzin], the alcohol drinking (golden hamster) is given as “decreases alcohol drinking”.

In the case of `O=C1CC[C@@]2(O)[C@H]3Cc4ccc(O)c5c4[C@@]2(CCN3CC2CC2)[C@H]1O5` [naltrexone], the alcohol consumption (animals) is listed as “inhibit alcohol consumption”.

For `CN1CCN(C2=Nc3cc(Cl)ccc3Nc3ccccc32)CC1` [CLOZ, clozapine], the “body weight, change from baseline” value (Syrian golden hamsters) was “lost weight”, the “time to onset of decrease in alcohol drinking after first injection” value (Syrian golden hamsters; first CLOZ injection 2 mg/kg s.c., treatment day #2) was ≤ 27 h and the “alcohol consumption, % of baseline” value (Syrian golden hamsters; treatment period, by day #6, after four days of 4 mg/kg/day CLOZ s.c.) was 10 % of baseline.
